The text below walks through data of patent publication US7169816B2, “4-bromo or 4-iodo phenylamino benzhydroxamic acid derivatives and their use as MEK inhibitors” (Warner-Lambert Company, priority 1997, dated 2007).

In general, IC50 refers to the concentration needed to halve the response being measured.

The assay addresses p45MEK (GST-MEK) (Homo sapiens, UniProt Q02750). Put plainly: Cascade assay for inhibitors of the MAP kinase pathway (in vitro). Type of assay: biochemical. The procedure: Incorporation of ^32P into myelin basic protein (MBP) was assayed in the presence of a glutathione S-transferase fusion protein containing p44MAP kinase (GST-MAPK) and a glutathione S-transferase fusion protein containing p45MEK (GST-MEK). The assay solution contained 20 mM HEPES, pH 7.4, 10 mM MgCl2, 1 mM MnCl2, 1 mM EGTA, 50 μM [γ-^32P]ATP, 10 μg GST-MEK, 0.5 μg GST-MAPK and 40 μg MBP in a final volume of 100 μL. […] Compounds were assessed at 10 μM for ability to inhibit incorporation of ^32P.
To ascertain whether compounds were inhibiting GST-MEK or GST MAPK, two additional protocols were employed. In the first protocol, compounds were added to tubes containing GST-MEK, followed by addition of GST-MAPK, MBP and [γ-^32P]ATP. In the second protocol, compounds were added to tubes containing both GST-MEK and GST-MAPK, followed by MBP and [γ-^32P]ATP.
“4-Fluoro-2-(4-iodo-2-methyl-phenylamino)-N-phenylmethoxy-benzamide [Example 77]” returned an IC50 of 280 nM. `Cc1cc(I)ccc1Nc1ccc(Cl)cc1C(=O)NO` [Example 4, 5-Chloro-N-hydroxy-2-(4-iodo-2-methyl-phenylamino)-benzamide] returned an IC50 of 23 nM. As for `Cc1cc(I)ccc1Nc1ccc(Cl)cc1C(=O)N(C)O` [Example 5, 5-Chloro-N-hydroxy-2-(4-iodo-2-methyl-phenylamino)-N-methyl-benzamide], the figure is 566 nM; as for `Cc1cc(I)ccc1Nc1ccc(Cl)cc1C(=O)NOC1CCCCO1` (stereo not drawn) [Example 6, 5-Chloro-2-(4-iodo-2-methyl-phenylamino)-N-(terahydropyran-2-yloxy)benzamide], 345 nM. With `CONC(=O)c1cc(Cl)ccc1Nc1ccc(I)cc1C` [Example 7, 5-Chloro-2-(4-iodo-2-methyl-phenylamino)-N-methoxybenzamide], the IC50 was found to be 221 nM. The figure for `Cc1cc(F)ccc1Nc1cc(F)ccc1C(=O)NO` [Example 8, 4-Fluoro-N-hydroxy-2-(4-fluoro-2-methyl-phenylamino)-benzamide] is 7130 nM; for `Cc1ccccc1Nc1cc(F)ccc1C(=O)NO` [Example 9, 4-Fluoro-N-hydroxy-2-(2-methylphenylamino)-benzamide] it is 409 nM; for `Cc1cc(I)ccc1Nc1cc(F)ccc1C(=O)NOCc1ccccc1` [Example 12, 4-Fluoro-2-(4-iodo-2-methyl-phenylamino)-N-phenylmethoxy-benzamide] it is 826 nM. As for `CONC(=O)c1ccc(F)cc1Nc1ccc(I)cc1C` [Example 13, 4-Fluoro-2-(4-iodo-2-methyl-phenylamino)-N-methoxy-benzamide], the figure is 243 nM; as for `CONC(=O)c1ccc(F)c(F)c1Nc1ccc(I)cc1C` [Example 14, 3,4-Difluoro-2-(4-iodo-2-methyl-phenylamino)-N-methoxy-benzamide], 61 nM; as for `CCONC(=O)c1cc(Br)c(F)c(F)c1Nc1ccc(I)cc1C` [Example 17, 5-Bromo-N-ethoxy-3,4-difluoro-2-(4-iodo-2-methyl-phenylamino)-benzamide], 14 nM. The figure for `Cc1cc(I)ccc1Nc1cc(F)ccc1C(=O)NOCc1ccoc1` [Example 20, 4-Fluoro-N-(furan-3-ylmethoxy)-2-(4-iodo-2-methyl-phenylamino)-benzamide] is 42 nM; for `Cc1cc(I)ccc1Nc1c(C(=O)NOCc2ccoc2)ccc(F)c1F` [Example 21, 3,4-Difluoro-N-(furan-3-ylmethoxy)-2-(4-iodo-2-methyl-phenylamino)-benzamide] it is 14 nM. `Cc1cc(Br)ccc1Nc1c(C(=O)NOCc2ccoc2)ccc(F)c1F` [Example 22, 2-(4-Bromo-2-methyl-phenylamino)-3,4-difluoro-N-(furan-3-ylmethoxy)-benzamide] showed an IC50 of 137 nM. This IC50 is about 9.8-fold higher than that of the molecule before. As for `Cc1cc(I)ccc1Nc1c(C(=O)NOCc2ccoc2)cc(Br)c(F)c1F` [Example 23, 5-Bromo-3,4-difluoro-N-(furan-3-ylmethoxy)-2-(4-iodo-2-methyl-phenylamino)-benzamide], the figure is 16 nM; as for `CC=CCONC(=O)c1cc(Br)c(F)c(F)c1Nc1ccc(I)cc1C` [Example 24, 5-Bromo-N-(but-2-enyloxy)-3,4-difluoro-2-(4-iodo-2-methyl-phenylamino)-benzamide], 21 nM; as for `C#CCONC(=O)c1ccc(F)cc1Nc1ccc(I)cc1C` [Example 25, 4-Fluoro-2-(4-iodo-2-methyl-phenylamino)-N-(prop-2-ynyloxy)-benzamide], 102 nM. Turning to `C#CC(C)ONC(=O)c1ccc(F)c(F)c1Nc1ccc(I)cc1C` (stereo not drawn) [Example 27, 3,4-Difluoro-2-(4-iodo-2-methyl-phenylamino)-N-(1-methyl-prop-2-ynyloxy)-benzamide], the IC50 came out at 26 nM. As for `C#CC(C)ONC(=O)c1ccc(F)c(F)c1Nc1ccc(Br)cc1C` (stereo not drawn) [Example 28, 2-(4-Bromo-2-methyl-phenylamino)-3,4-difluoro-N-(1-methyl-prop-2-ynyloxy)-benzamide], the figure is 728 nM; as for `C#CCCONC(=O)c1ccc(F)c(F)c1Nc1ccc(I)cc1C` [Example 29, N-(But-3-ynyloxy)-3,4-difluoro-2-(4-iodo-2-methyl-phenylamino)-benzamide], 76 nM; as for `C#CCCONC(=O)c1ccc(F)c(F)c1Nc1ccc(Br)cc1C` [Example 30, 2-(4-Bromo-2-methyl-phenylamino)-N-(but-3-ynyloxy)-3,4-difluoro-benzamide], 971 nM.

Regarding `C#CCCONC(=O)c1cc(Br)c(F)c(F)c1Nc1ccc(I)cc1C` [Example 31, 5-Bromo-N-(but-3-ynyloxy)-3,4-difluoro-2-(4-iodo-2-methyl-phenylamino)-benzamide], it took 45 nM to reach half-maximal inhibition (IC50).

Regarding `Cc1cc(I)ccc1Nc1c(C(=O)NOCC#Cc2ccccc2)ccc(F)c1F` [Example 32, 3,4-Difluoro-2-(4-iodo-2-methyl-phenylamino)-N-(3-phenyl-prop-2-ynyloxy)-benzamide], inhibition was half-maximal at 17 nM (IC50). Against the preceding molecule, the IC50 is about 2.6-fold lower.

For `Cc1cc(Br)ccc1Nc1c(C(=O)NOCC#Cc2ccccc2)ccc(F)c1F` [Example 33, 3,4-Difluoro-2-(4-bromo-2-methyl-phenylamino)-N-(3-phenyl-prop-2-ynyloxy)-benzamide], the IC50 worked out at 374 nM. Compared with the last molecule, the IC50 is about 22-fold higher. As for `Cc1cc(I)ccc1Nc1c(C(=O)NOCC#Cc2cccc(F)c2)ccc(F)c1F` [Example 34, 3,4-Difluoro-N-[3-(3-fluoro-phenyl)-prop-2-ynyloxy]-2-(4-iodo-2-methyl-phenylamino)-benzamide], the figure is 113 nM; as for `Cc1cc(I)ccc1Nc1c(C(=O)NOCC#Cc2ccccc2F)ccc(F)c1F` [Example 36, 3,4-Difluoro-N-[3-(2-fluoro-phenyl)-prop-2-ynyloxy]-2-(4-iodo-2-methyl-phenylamino)-benzamide], 56 nM; as for `Cc1cc(I)ccc1Nc1c(C(=O)NOCC#Cc2ccccc2F)cc(Br)c(F)c1F` [Example 37, 5-Bromo-3,4-difluoro-N-[3-(2-fluoro-phenyl)-prop-2-ynyloxy]-2-(4-iodo-2-methyl-phenylamino)-benzamide], 2 nM. The figure for `CC(C#Cc1ccccc1)=CCONC(=O)c1ccc(F)c(F)c1Nc1ccc(Br)cc1C` [Example 39, 2-(4-Bromo-2-methyl-phenylamino)-3,4-difluoro-N-(3-methyl-5-phenyl-pent-2-en-4-ynyloxy)-benzamide] is 147 nM; for `CCONC(=O)c1ccc(F)c(F)c1Nc1ccc(I)cc1C` [Example 40, N-Ethoxy-3,4-difluoro-2-(4-iodo-2-methyl-phenylamino)-benzamide] it is 28 nM. As for `CCONC(=O)c1ccc(F)c(F)c1Nc1ccc(Br)cc1C` [Example 41, 2-(4-Bromo-2-methyl-phenylamino)-N-ethoxy-3,4-difluoro-benzamide], the figure is 236 nM. `CCCONC(=O)c1ccc(F)cc1Nc1ccc(I)cc1C` [Example 42, 4-Fluoro-2-(4-iodo-2-methyl-phenylamino)-N-propoxy-benzamide]: the half-maximal inhibitory concentration (IC50) worked out at 87 nM. Against the preceding molecule, the IC50 is about 2.7-fold lower. On to `CCCONC(=O)c1ccc(F)c(F)c1Nc1ccc(I)cc1C` [Example 43, 3,4-Difluoro-2-(4-iodo-2-methyl-phenylamino)-N-propoxy-benzamide], for which the IC50 amounted to 40 nM. This IC50 lies about 2.2-fold lower than the previous one. In turn, `CCCONC(=O)c1ccc(F)c(F)c1Nc1ccc(Br)cc1C` [Example 44, 2-(4-Bromo-2-methyl-phenylamino)-3,4-difluoro-N-propoxy-benzamide] had an IC50 of 475 nM. Against the preceding molecule, the IC50 is about 12-fold higher.

Turning to `CCCONC(=O)c1cc(Br)c(F)c(F)c1Nc1ccc(I)cc1C` [Example 45, 5-Bromo-3,4-difluoro-2-(4-iodo-2-methyl-phenylamino)-N-propoxy-benzamide], half-maximal inhibition (IC50) was put at 126 nM. As for `Cc1cc(I)ccc1Nc1c(C(=O)NOC(C)C)ccc(F)c1F` [Example 47, 3,4-Difluoro-2-(4-iodo-2-methyl-phenylamino)-N-isopropoxy-benzamide], the figure is 87 nM. For `Cc1cc(I)ccc1Nc1c(C(=O)NOC(C)C)cc(Br)c(F)c1F` [Example 49, 5-Bromo-3,4-difluoro-2-(4-iodo-2-methyl-phenylamino)-N-isopropoxy-benzamide], the IC50 came to 85 nM. The figure for `Cc1cc(I)ccc1Nc1c(C(=O)NOC2CCC2)ccc(F)c1F` [Example 50, N-Cyclobutyloxy-3,4-difluoro-2-(4-iodo-2-methyl-phenylamino)-benzamide] is 43 nM. Molecule `Cc1cc(I)ccc1Nc1c(C(=O)NOC2CCCC2)ccc(F)c1F` [Example 53, N-Cyclopentyloxy-3,4-difluoro-2-(4-iodo-2-methyl-phenylamino)-benzamide] had an IC50 of 140 nM. As for `Cc1cc(I)ccc1Nc1cc(F)ccc1C(=O)NOCC1CC1` [Example 55, N-Cyclopropylmethoxy-4-fluoro-2-(4-iodo-2-methyl-phenylamino)-benzamide], the figure is 47 nM. The figure for `Cc1cc(I)ccc1Nc1c(C(=O)NOCC2CC2)ccc(F)c1F` [Example 56, N-Cyclopropylmethoxy-3,4-difluoro-2-(4-iodo-2-methyl-phenylamino)-benzamide] is 14 nM. As for `Cc1cc(Br)ccc1Nc1c(C(=O)NOCC2CC2)ccc(F)c1F` [Example 57, 2-(4-Bromo-2-methyl-phenylamino)-N-cyclopropylmethoxy-3,4-difluoro-benzamide], the figure is 181 nM. On to `Cc1cc(I)ccc1Nc1cc(F)ccc1C(=O)NOCCOc1ccccc1` [Example 59, 4-Fluoro-2-(4-iodo-2-methyl-phenylamino)-N-(2-phenoxy-ethoxy)-benzamide], for which the IC50 worked out at 259 nM.
